{"source": "patent US4315020A", "about": "“Oxazoline (trifluoroethyl) amine” (Science Union et Cie, priority 1976, dated 1982)", "assay": "solubility", "format": "physicochemical", "settings": "for solubility in the stoichiometric amount of N/10 hydrochloric acid: N/10 hydrochloric acid solution"}
{"smiles": "FC(F)(F)C(NC1=NCCN1)c1ccccc1", "note": "(racemic) [I, 2(α-phenyl trifluoroethylamino) imidazoline]", "values": [{"measurement": "solubility in the stoichiometric amount of N/10 hydrochloric acid", "setting": "stoichiometric amount", "result": "soluble"}]}
{"smiles": "FC(F)(F)C(NC1=NCCO1)c1ccco1", "note": "(racemic) [X, dl 2-[α-trifluoromethyl (furyl-2)methylamino] oxazoline]", "values": [{"measurement": "solubility in the stoichiometric amount of dilute hydrochloric acid", "setting": "stoichiometric amount, dilute hydrochloric acid", "result": "soluble"}]}
{"smiles": "Cn1cccc1C(NC1=NCCO1)C(F)(F)F", "note": "(racemic) [XIV, dl α-trifluoromethyl 2-[(N-methylpyrrolyl-2)methylamino] oxazoline]", "values": [{"measurement": "solubility in a N/10 aqueous solution of hydrochloric acid", "setting": "N/10 aqueous hydrochloric acid", "result": "soluble"}]}
{"smiles": "Cc1ccccc1C(NC1=NCCO1)C(F)(F)F", "note": "(racemic) [XIX, dl 2-[(2-methylphenyl) ααα-trifluoroethyl]amino oxazoline]", "values": [{"measurement": "solubility in the aqueous solution of mineral acids", "setting": "aqueous mineral acids", "result": "soluble"}, {"measurement": "solubility in the usual organic solvents", "setting": "usual organic solvents", "result": "soluble"}]}
{"smiles": "CN(C1=NCCO1)C(c1ccccc1)C(F)(F)F", "note": "(racemic) [XV, dl α-trifluoromethyl 2-(N-methylbenzylamino) oxazoline]", "values": [{"measurement": "solubility in an aqueous solution of hydrochloric acid", "setting": "aqueous hydrochloric acid", "result": "soluble"}, {"measurement": "solubility in the most of the organic solvents", "setting": "most organic solvents", "result": "soluble"}]}
{"smiles": "FC(F)(F)C(NC1=NCCO1)c1ccc[nH]1", "note": "(racemic) [XVI, dl α-trifluoromethyl 2-[(pyrrolyl-2)methylamino] oxazoline]", "values": [{"measurement": "solubility in the stoichiometric amount of N/10 hydrochloric acid", "setting": "stoichiometric amount", "result": "soluble"}]}
{"smiles": "FC(F)(F)C(NC1=NCCO1)c1ccccc1", "note": "(single isomer, unassigned) [XII, levorotatory 2-[α-trifluoromethylbenzylamino] oxazoline]", "values": [{"measurement": "solubility in dilute hydrochloric acid", "setting": "dilute hydrochloric acid", "result": "solbuble"}]}
